These results are taken from ChEMBL document CHEMBL1201862, “PubChem BioAssay data set” (2004).

What all share (assay): NCI anticancer screen, dose series, 48 h
The subject of test [1] is A549.
Test [2] has as its system ACHN.
Test [3] has as its system CCRF-CEM.
For test [4], the system named is COLO 205.
Test [5] deals with EKVX.
The test system of test [6] is HCC 2998.
Test [7] concerns HCT-116.
The subject of test [8] is K562.
Test [9] concerns LOX IMVI.
Test [10] has as its system MOLT-4.
Test [11] deals with RPMI-8226.
Test [12] has as its system RXF 393.
The test system of test [13] is SF-295.
The subject of test [14] is SF-539.
The subject of test [15] is SK-OV-3.
Test [16] has as its system SNB-19.
In test [17] the test system is SNB-75.
The subject of test [18] is TK-10.
The test system of test [19] is U-251.
For test [20], the system named is UO-31.

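Dose response: 5 concentrations. Exposure: 48 h. Format: 96-well plates. Endpoint: linear interpolation; highest concentration if not reached. GI50 = concentration required for 50% inhibition of growth.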 Activity calls are given as the source filed them. Cut-off read from the data, not from the text of the source: active = GI50 up to about 1.1 µM and inactive = higher.

For `Nc1cc(C2CCCc3c2[nH]c2ccccc32)ccc1O` (stereo not drawn), the GI50 was 24.6 µM (inactive) in test [1]; 18.5 µM (inactive) in test [2]; 0.76 µM (active) in test [3]; 45.4 µM (inactive) in test [4]; 44 µM (inactive) in test [5]; 64.7 µM (inactive) in test [6]. The GI50 in test [7] was 20.3 µM (inactive); in [8] it was 6.56 µM (inactive); in [9], 16.4 µM (inactive); in [10], 4.79 µM (inactive); in test [11] it was 0.271 µM (active); in test [12], 55.8 µM (inactive). In addition, the GI50 in [13] was 14.4 µM (inactive); in test [14], > 100 µM (inactive); in test [15], > 100 µM (inactive); in test [16] it was > 100 µM (inactive); in [17] it was 52 µM (inactive); in test [18] it was > 100 µM (inactive). Moreover, the GI50 in [19] is 48.2 µM (inactive); in [20] it was 10.5 µM (inactive).

Consider `OC1CC1Sc1ccccc1` (stereo not drawn), for which the GI50 was 34.6 µM (inactive) in [1]; 43.5 µM (inactive) in test [2]; 15.1 µM (inactive) in [3]; 40.7 µM (inactive) in [4]; 70.1 µM (inactive) in test [5]; 35 µM (inactive) in test [6]. For the same compound, the GI50 in test [7] was 22.5 µM (inactive); in test [8], 33.9 µM (inactive); in test [9], 28 µM (inactive); in test [10], 21.1 µM (inactive); in test [11], 30.5 µM (inactive); in test [12], 25.2 µM (inactive). The GI50 in [13] is 24.5 µM (inactive); in [14] it was 22 µM (inactive); in test [15], 80.4 µM (inactive); in [16], 33.9 µM (inactive); in test [17] it was 26.7 µM (inactive); in [18], 59.7 µM (inactive). Besides, the GI50 in [19] was 31.6 µM (inactive); in [20], 10.1 µM (inactive).

Regarding `OCCN(CCO)c1ncnc2c1sc(=S)n2-c1ccccc1`, the GI50 in [1], in [2], in [3], in [4], in test [5] and in [6] was > 100 µM (inactive) in each case. The GI50 in [7], in test [8], in test [9], in test [10], in [11] and in test [12] was > 100 µM (inactive) in each case. In addition, the GI50 in [13], in test [14], in test [15], in test [16], in test [17] and in test [18] was > 100 µM (inactive) in each case. Moreover, the GI50 in [19] and in [20] was > 100 µM (inactive) throughout.

As to `O=C(NNC(=O)c1ccccc1S)c1ccccc1S` [BIS(THIOSALICYL)HYDRAZIDE], the GI50 in [1] was 14.3 µM (inactive); in [2], 10.8 µM (inactive); in test [3], 1.24 µM (inactive); in test [4] it was 11.1 µM (inactive); in test [5], 8.34 µM (inactive); in test [6], 5.96 µM (inactive). Moreover, the GI50 in [7] was 6.79 µM (inactive); in test [8], 14.6 µM (inactive); in [9], 9.84 µM (inactive); in test [10] it was 7.11 µM (inactive); in [11], 18.4 µM (inactive); in test [12], 22.6 µM (inactive). The GI50 in test [13] was 10.3 µM (inactive); in [14], 11.7 µM (inactive); in test [15] it was > 25 µM (inactive); in test [16], 23.4 µM (inactive); in [17], 18 µM (inactive); in test [18] it was > 25 µM (inactive). Moreover, the values for the GI50 in test [19] and in test [20] were 15.1 µM (inactive) and 8.43 µM (inactive), respectively.

Regarding `C/C(=N\NC(=N)N)C(CN1CCOCC1)C(c1ccccc1)c1c(O)c2ccccc2oc1=O` (stereo not drawn), the GI50 in test [1] was > 100 µM (inactive); in [2], > 100 µM (inactive); in [3], > 100 µM (inactive); in [4], 49.4 µM (inactive); in [5] it was > 100 µM (inactive); in [6], > 100 µM (inactive). The GI50 in test [7] is 90.6 µM (inactive); in test [8] it was > 100 µM (inactive); in test [9] it was > 100 µM (inactive); in [10], 66.2 µM (inactive); in test [11], 85.9 µM (inactive); in test [12], 29 µM (inactive). Further, the GI50 in test [13] was > 100 µM (inactive); in test [14], 77.6 µM (inactive); in test [15], > 100 µM (inactive); in test [16] it was > 100 µM (inactive); in test [17] it was 24.9 µM (inactive); in [18] it was > 100 µM (inactive). Besides, the GI50 in [19] is > 100 µM (inactive).

For `CCN(CCCl)CCCCCNc1c2ccccc2nc2ccc(OC)cc12`, the GI50 in [1] was 0.373 µM (active); in test [2], 0.47 µM (active); in test [3], 0.0857 µM (active); in test [4], 1.1 µM (active); in test [5], 3.79 µM (inactive); in [6], 1.04 µM (active). In addition, the GI50 in [7] was 0.221 µM (active); in test [8] it was 0.149 µM (active); in [9] it was 0.178 µM (active); in test [10] it was 0.0155 µM (active); in test [11] it was 0.115 µM (active); in [12], 1.07 µM (active). The GI50 in test [13] is 1.47 µM (inactive); in test [14], 1.04 µM (active); in test [15], 1.47 µM (inactive); in test [16], 1.16 µM (inactive); in [17] it was 0.942 µM (active); in test [18], 7.66 µM (inactive). The GI50 in test [19] was 0.603 µM (active); in test [20], 2.88 µM (inactive).

As for `O=c1ccs[nH]1`, the GI50 in [1] was 19.9 µM (inactive); in test [2] it was 7.05 µM (inactive); in test [3], 1.56 µM (inactive); in test [4], 8.91 µM (inactive); in test [5], 3.37 µM (inactive); in test [6], 3.97 µM (inactive). Also, the GI50 in test [7] is 8.79 µM (inactive); in test [8], 7.82 µM (inactive); in test [9], 7.26 µM (inactive); in test [10], 4.53 µM (inactive); in test [11], 2.7 µM (inactive); in test [12], 7.96 µM (inactive). Besides, the GI50 in test [13] is 6.17 µM (inactive); in test [14], 5.92 µM (inactive); in [15], 26.3 µM (inactive); in [16] it was 32.1 µM (inactive); in test [17] it was 16.9 µM (inactive); in test [18] it was 13.8 µM (inactive). In addition, the GI50 in [19] and in test [20] was 7.21 µM (inactive) throughout.

Consider `O=[N+]([O-])c1ccc(-c2nn3c(C45CC6CC(CC(C6)C4)C5)nnc3s2)c(Cl)c1`, for which the GI50 in test [1], in test [2], in test [3], in test [4], in [5] and in test [6] was > 100 µM (inactive) each time. Moreover, the GI50 in test [7], in [8], in [9], in [10], in test [11] and in test [12] was > 100 µM (inactive) each time. For the same compound, the GI50 in [13], in test [14], in test [15], in [16], in [17] and in test [18] was > 100 µM (inactive) throughout. The GI50 in test [19] and in test [20] was > 100 µM (inactive) in each case.

On to `N#Cc1ccc(Nc2cnc3cc(N)ccc3n2)cc1`, for which the GI50 in test [1] was > 100 µM (inactive); in test [2], 69 µM (inactive); in test [3] it was 33 µM (inactive); in test [4] it was > 100 µM (inactive); in [5], 98.2 µM (inactive); in test [6], > 100 µM (inactive). Further, the GI50 in test [7] is 55 µM (inactive); in test [8], 28.3 µM (inactive); in test [9], 75.2 µM (inactive); in test [10], 41.7 µM (inactive); in test [11], 42.7 µM (inactive); in [12], 26.5 µM (inactive). Further, the GI50 in [13] was > 100 µM (inactive); in test [14] it was > 100 µM (inactive); in test [15], > 100 µM (inactive); in test [16], 71.4 µM (inactive); in test [17] it was > 100 µM (inactive); in test [18], > 100 µM (inactive). Moreover, the GI50 in [19] was > 100 µM (inactive); in [20] it was 56 µM (inactive).

`Cc1cc2c(c(C(N)=O)c1C)-c1cc(Cl)cc(Cl)c1C2=O`: the GI50 in test [2] is > 100 µM (inactive); in [3], > 100 µM (inactive); in test [4], > 100 µM (inactive); in [5], 58.9 µM (inactive); in test [6], > 100 µM (inactive); in [7], > 100 µM (inactive). The GI50 in test [8] is > 100 µM (inactive); in [9], 93.3 µM (inactive); in [10], > 100 µM (inactive); in test [11], > 100 µM (inactive); in test [12], > 100 µM (inactive); in [13], 73.8 µM (inactive). For the same compound, the GI50 is 90.2 µM (inactive) in test [14]; 57.4 µM (inactive) in test [15]; 79.4 µM (inactive) in test [16]; 22.6 µM (inactive) in test [17]; > 100 µM (inactive) in [18]; 30.7 µM (inactive) in test [19]. Also, in test [20], the GI50 is > 100 µM (inactive).
